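All cell lines were grown in 96-well plates and treated with compound for 48 hours. GI50 = concentration required for 50% inhibition of growth.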 Active and inactive are the calls of the source. Cut-off read from the data, not from the text of the source: active = GI50 up to about 1.1 µM and inactive = higher. Peptide text beside a SMILES is read from it. * marks the point of attachment. Boc = CC(C)(C)OC(=O)*
Legend:
Test in all cases: DTP human tumour cell line panel, 48 h
786-0 = system: 786-0
A498 = system: A498
ACHN = system: ACHN
BT-549 = system: BT-549
HCC 2998 = system: HCC 2998
HCT-116 = system: HCT-116
HOP-92 = system: HOP-92
M14 = system: M14
OVCAR-5 = system: OVCAR-5
RPMI-8226 = system: RPMI-8226
SF-268 = system: SF-268
SF-539 = system: SF-539
SK-MEL-28 = system: SK-MEL-28
SK-MEL-5 = system: SK-MEL-5
SK-OV-3 = system: SK-OV-3
SN12C = system: SN12C
T47D = system: T47D
TK-10 = system: TK-10

SMILES | GI50 (786-0) | GI50 (A498) | GI50 (ACHN) | GI50 (BT-549) | GI50 (HCC 2998) | GI50 (HCT-116) | GI50 (HOP-92) | GI50 (M14) | GI50 (OVCAR-5) | GI50 (RPMI-8226) | GI50 (SF-268) | GI50 (SF-539) | GI50 (SK-MEL-28) | GI50 (SK-MEL-5) | GI50 (SK-OV-3) | GI50 (SN12C) | GI50 (T47D) | GI50 (TK-10)
O=C1c2ccccc2-c2c1c1ccccc1c(=O)n2-c1cccnc1 | 9.91 µM (inactive) | > 10 µM (inactive) | 23.2 µM (inactive) | 34.8 µM (inactive) | > 100 µM (inactive) | 27.3 µM (inactive) | 8.17 µM (inactive) | > 100 µM (inactive) | > 100 µM (inactive) | > 39.5 µM (inactive) | 29.5 µM (inactive) | 21.3 µM (inactive) | > 100 µM (inactive) | 73.5 µM (inactive) | 42.6 µM (inactive) | > 52.2 µM (inactive) | > 64.4 µM (inactive) | > 62.1 µM (inactive)
Cc1c2oc3c(C)cnc(C(=O)NC4C(=O)NC(C(C)C)C(=O)N5CCCC5C(=O)N(C)CC(=O)N(C)C(C(C)C)C(=O)OC4C)c3nc-2c(C(=O)NC2C(=O)NC(C(C)C)C(=O)N3CCCC3C(=O)N(C)CC(=O)N(C)C(C(C)C)C(=O)OC2C)c(N)c1=O (stereo unspecified) | 2.3 µM (inactive) | 6.18 µM (inactive) | 5.48 µM (inactive) | 7.62 µM (inactive) | 2.67 µM (inactive) | 0.396 µM (active) | 2.84 µM (inactive) | 3.4 µM (inactive) | 13.2 µM (inactive) | 0.211 µM (active) | 0.789 µM (active) | 1.42 µM (inactive) | 1.67 µM (inactive) | 1.04 µM (active) | 5.6 µM (inactive) | 1.36 µM (inactive) | 1.07 µM (active) | 22.9 µM (inactive)
COc1ccc(Cc2c(N)[nH]c(=O)[nH]c2=O)cc1 | > 100 µM (inactive) | > 100 µM (inactive) | > 100 µM (inactive) | > 100 µM (inactive) | > 100 µM (inactive) | > 100 µM (inactive) | 33.3 µM (inactive) | > 100 µM (inactive) | > 100 µM (inactive) | 22 µM (inactive) | > 100 µM (inactive) | > 100 µM (inactive) | > 100 µM (inactive) | > 100 µM (inactive) | > 100 µM (inactive) | > 100 µM (inactive) | > 100 µM (inactive) | > 100 µM (inactive)
COc1ccc2c(-c3ccc(OCCN(C)C)cc3)c(Oc3ccc(Cl)cc3)c(=O)oc2c1 | 2.59 µM (inactive) | 14 µM (inactive) | 7.23 µM (inactive) | 14.7 µM (inactive) | 2.83 µM (inactive) | 2.63 µM (inactive) | 5.5 µM (inactive) | 1.74 µM (inactive) | 15.6 µM (inactive) | 4.05 µM (inactive) | 7.76 µM (inactive) | 3.74 µM (inactive) | 1.82 µM (inactive) | 1.64 µM (inactive) | 7.4 µM (inactive) | 20.2 µM (inactive) | > 20.4 µM (inactive) | 7.82 µM (inactive)
CN(C)CCOc1ccc2[nH]c(C(=O)N3CC(CCl)c4c3cc(NC(=O)OCc3ccc([N+](=O)[O-])cc3)c3ccccc43)cc2c1 (stereo unspecified) | 0.979 µM (active) | 1.85 µM (inactive) | 0.689 µM (active) | 1.85 µM (inactive) | 8.15 µM (inactive) | 0.794 µM (active) | 1.5 µM (inactive) | 1.63 µM (inactive) | 1.6 µM (inactive) | 0.493 µM (active) | 1.37 µM (inactive) | 1.69 µM (inactive) | 1.64 µM (inactive) | 1.45 µM (inactive) | 1.66 µM (inactive) | 1.5 µM (inactive) | 1.55 µM (inactive) | 14.2 µM (inactive)
CC(NC(=O)OC(C)(C)C)C(=O)NC(Cc1ccccc1)C(=O)NCC(=O)O (stereo not drawn) (Boc-Ala-Phe-Gly-OH; configuration not given here) | > 100 µM (inactive) | > 100 µM (inactive) | > 100 µM (inactive) | > 100 µM (inactive) | > 100 µM (inactive) | > 100 µM (inactive) | > 100 µM (inactive) | > 100 µM (inactive) | > 100 µM (inactive) | > 100 µM (inactive) | > 100 µM (inactive) | > 100 µM (inactive) | > 100 µM (inactive) | > 100 µM (inactive) | > 100 µM (inactive) | > 100 µM (inactive) | > 100 µM (inactive) | > 100 µM (inactive)
CCCC#CCOC(=O)c1cc([N+](=O)[O-])cc([N+](=O)[O-])c1 | > 100 µM (inactive) | > 100 µM (inactive) | > 100 µM (inactive) | > 100 µM (inactive) | > 100 µM (inactive) | > 100 µM (inactive) | > 100 µM (inactive) | > 100 µM (inactive) | > 100 µM (inactive) | > 100 µM (inactive) | > 100 µM (inactive) | > 100 µM (inactive) | > 100 µM (inactive) | 52 µM (inactive) | > 100 µM (inactive) | > 100 µM (inactive) | > 100 µM (inactive) | > 100 µM (inactive)

From ChEMBL document CHEMBL1201862, “PubChem BioAssay data set” (2004)
